Assays:
Format in all cases: cell-based
[1] = system: SKBR3 (PI3Kα wild type) cells; experiment: CellTiter-Glo 2.0 luminescent cell viability assay, 72 hours, SKBR3 cells; conditions: Homo sapiens, SK-BR-3, 72 h, SKBR3 (PI3Kα wild type) cells, CellTiter-Glo, approximately 72 hours; read-out: SKBR3 (WT) Viability IC50
Summary of the method: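 Viability measured via CTG luminescence following roughly 72 hours of compound exposure at 37° C. Dosing used a 10 um starting concentration diluted 1:4 over 10 points; percent-of-vehicle data fitted with a variable-slope four-parameter model for IC50.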

[2] = system: T47D (PI3Kα H1047R mutant) cells; experiment: CellTiter-Glo 2.0 luminescent cell viability assay, 72 hours, T47D cells; conditions: Homo sapiens, T47D, 72 h, T47D (PI3Kα H1047R mutant) cells, CellTiter-Glo, approximately 72 hours; read-out: T47D (H1047R mutant) Viability IC50
Summary of the method: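 Viability was measured by CellTiter-Glo 2.0 luminescence after approximately 72 h of compound exposure at 37° C. Plating was 1000 cells per well the day before dosing, with ten 1:4 dilutions from a 10 µM top concentration. Values as percent of vehicle were fitted by variable-slope log(inhibitor) regression to give IC50.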

[3] = system: T47D (PI3Kα H1047R mutant) cells; experiment: Inhibition of pAKT formation, alphaLISA SureFire Ultra AKT 1/2/3 (pS473), T47D cells; conditions: Homo sapiens, T47D, T47D (PI3Kα H1047R mutant) cells; inhibition of pAKT (pS473) formation; approximately one hour or 24 hours treatment; read-out: T47D pAKT (H1047R mutant) IC50
Method: The ability of a compound of Formula (I) to inhibit the formation of pAKT was measured using alphaLISA Surefire Ultra AKT 1/2/3 (pS473) Assay Kit (#ALSU-PAKT-B50K) was obtained from Perkin Elmer (Waltham, MA).
To prepare assay plates for pAKT alphaLISA assays, cells were trypsinized, resuspended in fresh media, and viable cells were counted utilizing trypan blue exclusion. Prior to seeding, cells were washed with PBS and resuspended in HBSS (Gibco, #14025092). T47D (12,000/w), SKBR3(12,000/w), or MKN1(24,000/w) cells were seeded at 12 μl per well in a solid white flat bottom 384 cell culture plate (Perkin Elmer #6007680).
Immediately after seeding, cells were dosed using an Echo Liquid Handler (Beckman Coulter) with compounds at a […] starting concentration and serially diluted (1:4) for a total of 10 concentrations. […] Cells were incubated with the compounds (solubilized in DMSO) for approximately one hour or 24 hours at 37° C. After one hour (or 24 hours) of treatment, cells were lysed with 3 μl of the 5× lysis buffer (provided and incubated at room temperature for 15 min on a microtiter plate shaker). Once cells were sufficiently lysed, 7.5 μl of the acceptor bead mix (made using the manufacturers recommended dilutions) was added to each well and left on the microtiter plate shaker for 1 min prior to incubating plates at room temperature for one hour, in the absence of light. After one hour of incubation with the acceptor bead mix, 7.5 μl of the donor bead mix (made using the manufacturers recommended dilutions) was added to each well and left on the microtiter plate shaker for 1 min prior to incubating plates at room temperature overnight in the absence of light. Plates were then imaged the following day using a CLARIOstar microplate reader (BMG Labtech, Germany).
Percent of control values were calculated by subtracting the average signal from the positive control (alpelisib) treated wells from all treated wells (including DMSO control wells) and then divided by the average signal from the vehicle DMSO treated control wells. Percent of vehicle control values were plotted as log (inhibitor) vs. response-Variable slope (four parameters) for curve fitting and IC50 values were determined using XLfit.
Key: N.D. =not determined
Inhibition of pAKT in T47D (PI3Kα H1047R mutant) cells by Exemplary Compounds of Formula (I)

IC50 [1]	IC50 [2]	IC50 [3]	SMILES
3720 nM	101 nM	2.16 nM	Cc1cc([C@@H](C)Nc2ccccc2C(=O)O)c2nc(N3CCN(C(=O)c4ccccc4)CC3)c(C)c(=O)n2c1 [Example 10-117, (R)-2-((1-(2-(4-benzoylpiperazin-1-yl)-3,7-dimethyl-4-oxo-4H-pyrido[1,2-a]pyrimidin-9-yl)ethyl)amino)benzoic acid]
> 10000 nM	78.5 nM	2.53 nM	Cc1cc([C@@H](C)Nc2ccccc2C(=O)O)c2nc(N3CCC4(CC3)C(F)(F)C4(F)F)c(C#N)c(=O)n2c1 [Example 10-81, (R)-2-((1-(3-cyano-7-methyl-4-oxo-2-(1,1,2,2-tetrafluoro-6-azaspiro[2.5]octan-6-yl)-4H-pyrido[1,2-a]pyrimidin-9-yl)ethyl)amino)benzoic acid]
> 10000 nM	66.5 nM	1.34 nM	Cc1cc([C@@H](C)Nc2ccc(Cl)nc2C(=O)O)c2nc(N3Cc4ccc(F)cc4C3)c(C#N)c(=O)n2c1 [Example 10-50, (R)-6-chloro-3-((1-(3-cyano-2-(5-fluoroisoindolin-2-yl)-7-methyl-4-oxo-4H-pyrido[1,2-a]pyrimidin-9-yl)ethyl)amino)picolinic acid]
> 10000 nM	> 10000 nM		CCC(O)c1cc(C)cn2c(=O)cc(N3CCCCC3)nc12 (stereo not shown) [Example 11-410, 9-(1-hydroxypropyl)-7-methyl-2-(piperidin-1-yl)-4H-pyrido[1,2-a]pyrimidin-4-one]
> 10000 nM	74.3 nM		COc1cc2c(cc1OC)CN(c1nc3c([C@@H](C)Nc4ccccc4C(=O)O)cc(C)cn3c(=O)c1C)C2 [Example 10-139, (R)-2-((1-(2-(5,6-dimethoxyisoindolin-2-yl)-3,7-dimethyl-4-oxo-4H-pyrido[1,2-a]pyrimidin-9-yl)ethyl)amino)benzoic acid]
> 10000 nM	386 nM		Cc1cc(C(C)Nc2ccccc2C(=O)O)c2nc(N3CCN(c4ccccc4)CC3)cc(=O)n2c1 (stereo not shown) [Example 11-335, 2-((1-(7-methyl-4-oxo-2-(4-phenylpiperazin-1-yl)-4H-pyrido[1,2-a]pyrimidin-9-yl)ethyl)amino)benzoic acid]
> 10000 nM	> 10000 nM		CC(Nc1ccccc1C(=O)O)c1cc(C#N)cn2c(=O)cc(N3CCC(F)(F)CC3)nc12 (stereo not shown) [Example 11-419, 2-((1-(7-cyano-2-(4,4-difluoropiperidin-1-yl)-4-oxo-4H-pyrido[1,2-a]pyrimidin-9-yl)ethyl)amino)benzoic acid]
> 10000 nM	> 10000 nM		Cc1cc([C@H](C)Nc2ccccc2C(=O)O)c2nc([C@H]3CCN(C)C(=O)C3)cc(=O)n2c1 [Example 11-374, 2-(((S)-1-(7-methyl-2-((S)-1-methyl-2-oxopiperidin-4-yl)-4-oxo-4H-pyrido[1,2-a]pyrimidin-9-yl)ethyl)amino)benzoic acid]
> 10000 nM	1560 nM		Cc1cc([C@@H](C)Nc2ccccc2C(=O)O)c2nc(NCC3COC3)c(C)c(=O)n2c1 [Example 11-205, (R)-2-((1-(3,7-dimethyl-2-((oxetan-3-ylmethyl)amino)-4-oxo-4H-pyrido[1,2-a]pyrimidin-9-yl)ethyl)amino)benzoic acid]
> 10000 nM	172 nM		Cc1cc([C@@H](C)Nc2ccccc2C(=O)O)c2nc(N3CCN(CC(F)F)CC3)c(C#N)c(=O)n2c1 [Example 11-42, (R)-2-((1-(3-cyano-2-(4-(2,2-difluoroethyl)piperazin-1-yl)-7-methyl-4-oxo-4H-pyrido[1,2-a]pyrimidin-9-yl)ethyl)amino)benzoic acid]
> 10000 nM	320 nM		Cc1cc([C@@H](C)Nc2ccccc2C(=O)O)c2nc(N3CCC(F)(F)[C@@H]3C)c(C)c(=O)n2c1 [Example 11-122, 2-(((R)-1-(2-((S)-3,3-difluoro-2-methylpyrrolidin-1-yl)-3,7-dimethyl-4-oxo-4H-pyrido[1,2-a]pyrimidin-9-yl)ethyl)amino)benzoic acid]
> 10000 nM	508 nM		Cc1cc([C@@H](C)Nc2ccccc2C(=O)O)c2nc(N3CCC(C)(C#N)CC3)c(C#N)c(=O)n2c1 [Example 11-68, (R)-2-((1-(3-cyano-2-(4-cyano-4-methylpiperidin-1-yl)-7-methyl-4-oxo-4H-pyrido[1,2-a]pyrimidin-9-yl)ethyl)amino)benzoic acid]

More lines, now with the values behind:

SMILES	IC50 [1]	IC50 [2]	IC50 [3]
C[C@@H](Nc1ccccc1C(=O)O)c1cc(F)cn2c(=O)c(C#N)c(N3CCC(F)(F)CC3)nc12 [Example 10-25, (R)-2-((1-(3-cyano-2-(4,4-difluoropiperidin-1-yl)-7-fluoro-4-oxo-4H-pyrido[1,2-a]pyrimidin-9-yl)ethyl)amino)benzoic acid]	> 10000 nM	49.6 nM	4.69 nM
Cc1cc([C@@H](C)Nc2scnc2C(=O)O)c2nc(N3CCC(F)(F)CC3)c(C#N)c(=O)n2c1 [Example 11-292, (R)-5-((1-(3-cyano-2-(4,4-difluoropiperidin-1-yl)-7-methyl-4-oxo-4H-pyrido[1,2-a]pyrimidin-9-yl)ethyl)amino)thiazole-4-carboxylic acid]	> 10000 nM	3950 nM	
Cc1cc(C(C)Nc2ccccc2C(=O)O)c2nc(N3CCN(c4ccc(CN)cc4)CC3)cc(=O)n2c1 (stereo not shown) [Example 11-257, 2-((1-(2-(4-(4-(aminomethyl)phenyl)piperazin-1-yl)-7-methyl-4-oxo-4H-pyrido[1,2-a]pyrimidin-9-yl)ethyl)amino)benzoic acid]	> 10000 nM	9520 nM	
Cc1cc(C(C)Nc2ccccc2C(=O)O)c2nc(-c3ccncc3)cc(=O)n2c1 (stereo not shown) [Example 11-400, 2-((1-(7-methyl-4-oxo-2-(pyridin-4-yl)-4H-pyrido[1,2-a]pyrimidin-9-yl)ethyl)amino)benzoic acid]	> 10000 nM	1050 nM	
Cc1cc([C@@H](C)Nc2ccccc2C(=O)O)c2nc(N3C4CNCC3C4)c(C#N)c(=O)n2c1 [Example 11-178, 2-(((1R)-1-(2-(3,6-diazabicyclo[3.1.1]heptan-6-yl)-3-cyano-7-methyl-4-oxo-4H-pyrido[1,2-a]pyrimidin-9-yl)ethyl)amino)benzoic acid]	> 10000 nM	≥ 10000 nM	
Cc1cc([C@@H](C)Nc2ccccc2C(=O)O)c2nc(N3CCC(c4ccccc4)C3)c(C)c(=O)n2c1 (stereo partly drawn) [Example 11-14, 2-(((1R)-1-(3,7-dimethyl-4-oxo-2-(3-phenylpyrrolidin-1-yl)-4H-pyrido[1,2-a]pyrimidin-9-yl)ethyl)amino)benzoic acid]	> 10000 nM	233 nM	
Cc1cc([C@@H](C)Nc2ccccc2C(=O)O)c2nc(N3C[C@H]4C[C@@H]3CC4(F)F)c(C#N)c(=O)n2c1 [Example 11-230, 2-(((R)-1-(3-cyano-2-((1R,4R)-5,5-difluoro-2-azabicyclo[2.2.1]heptan-2-yl)-7-methyl-4-oxo-4H-pyrido[1,2-a]pyrimidin-9-yl)ethyl)amino)benzoic acid]	> 10000 nM	201 nM	
Cc1cc([C@@H](C)Nc2ccccc2C(=O)O)c2nc(N3CC4CC4(C(F)(F)F)C3)c(C)c(=O)n2c1 (stereo partly drawn) [Example 10-145, 2-(((1R)-1-(3,7-dimethyl-4-oxo-2-(1-(trifluoromethyl)-3-azabicyclo[3.1.0]hexan-3-yl)-4H-pyrido[1,2-a]pyrimidin-9-yl)ethyl)amino)benzoic acid]	> 10000 nM	98.5 nM	
Cc1cc([C@@H](C)Nc2ccccc2C(=O)O)c2nc(N3Cc4ccncc4C3)c(C#N)c(=O)n2c1 [Example 11-286, (R)-2-((1-(3-cyano-2-(1,3-dihydro-2H-pyrrolo[3,4-c]pyridin-2-yl)-7-methyl-4-oxo-4H-pyrido[1,2-a]pyrimidin-9-yl)ethyl)amino)benzoic acid]	> 10000 nM	284 nM	

Source: US20260078120A1, “SUBSTITUTED PYRIDOPYRIMIDINONES” (MIRATI THERAPEUTICS, INC., priority 2022, published 2026)
